Reference: patent US11332438B2, “Creatine prodrugs, compositions and methods of use thereof” (Ultragenyx Pharmaceutical Inc., priority 2017, dated 2022)

Tests used:
[1] = Plasma stability, mouse plasma; format: in vitro ADME; conditions: Table 2A, 37 °C, read-out: Plasma Stability Mouse t1/2
Summary of the method: (§1)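 Half-life (min) from LC-MS/MS of acetonitrile-quenched samples taken at t=0, 2, 5, 15, 30 min. Compound dosed at 1 µM final into plasma pre-warmed to 37 °C, pH set to 7.4 where required; incubations at 37 °C.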

[2] = Liver microsome stability, mouse; format: in vitro ADME; conditions: liver microsomes, pH 7.4, Table 2A, read-out: Microsome Stability Mouse t1/2
Summary of the method: (§2)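 Remaining compound measured by LC/MS after acetonitrile/internal-standard quench at 0–60 min time points (0, 5, 10, 20, 30, 60). Incubations used mouse or human liver microsomes in pH 7.4 potassium phosphate/EDTA buffer with NADPH; a 60-min sample without NADPH served as control.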

[3] = Chemical stability in simulated gastric fluid (SGF) without pepsin; format: physicochemical; conditions: 50 μM prodrug
Summary of the method: (§3)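 Incubations used 50 μM compound at 37 °C in phosphate buffered saline, fasted simulated intestinal fluid without pancreatin, or fasted simulated gastric fluid without pepsin.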

[4] = Chemical stability in phosphate buffered saline (PBS); format: physicochemical; conditions: 50 μM prodrug
Summary of the method: as §3

[5] = Liver microsome stability, human; format: in vitro ADME; conditions: liver microsomes, pH 7.4, Table 2A, read-out: Microsome Stability Human t1/2
Summary of the method: as §2

[6] = Plasma stability, human plasma; format: in vitro ADME; conditions: Table 2A, 37 °C, read-out: Plasma Stability Human t1/2
Summary of the method: as §1

[7] = system: ARPE-19 cells; test: Creatine prodrug uptake and d3-creatine release in ARPE-19 cells (Table 4A); format: cell-based, human; conditions: 50 μM, 6 h, cytosol fraction, corrected for total protein

half-life [1] | half-life at 10 μM [2] | Chemical Stability SGF, no enzyme % T0 at 2 hours at 37 °C. ([3]; Table 2A) | Chemical Stability SGF, no enzyme % T0 at 2 hours at 37 °C. ([3]; Table 2B) | Chemical Stability PBS % T0 at 2 hours at 37 °C. ([4]; Table 2A) | Chemical Stability PBS % T0 at 2 hours at 37 °C. ([4]; Table 2B) | half-life at 10 μM [5] | half-life [6] | prodrug, Cellular Uptake [7] | Compound
< 5 min | < 5 min | 117% | 95% | 0% | 0% | < 5 min | < 5 min |  | Cl.[2H]C([2H])([2H])N(CC(=O)OCC)C(=N)NC(=O)CCCCCCCCCC [Compound 8]
< 5 min | 7 min | 81% |  | 61% |  | 6 min | < 5 min | BQL | Cl.[H]/N=C(/NC(=O)CCCCCCC/C=C\CCCCCCCC)N(CC(=O)OCCCCCCC)C([2H])([2H])[2H] [Compound 2, (Z)-heptyl 2-(1-trideuteriomethyl-3-oleoylguanidino)acetate Hydrochloride]
< 5 min | < 5 min | 76% |  | 42% |  | < 5 min | < 5 min | BQL | Cl.[2H]C([2H])([2H])N(CC(=O)OCCCCCCC)C(=N)NC(=O)CCCCCCCCCCCC [Compound 11]
